Measurements from the NIST ThermoML archive (doi:10.1021/je400056z).

Assay: xn = mol fraction of the nth substance listed
Settings: Liquid, Vibrating tube method

CCCCCCC [heptane] + O=C=O
Settings	mass density [kg/m3]
322.91 K, 22022 kPa, x2 = 0.7514	759.49
322.91 K, 23010 kPa, x2 = 0.7514	762.14
322.91 K, 23983 kPa, x2 = 0.7514	764.78
322.91 K, 24907 kPa, x2 = 0.7514	767.21
322.94 K, 3016 kPa, x2 = 0.0218	663.11
322.94 K, 4008 kPa, x2 = 0.0218	664.28
322.94 K, 5006 kPa, x2 = 0.0218	665.41
322.94 K, 5006 kPa, x2 = 0.5085	691.2
322.94 K, 6002 kPa, x2 = 0.0218	666.44
322.94 K, 6004 kPa, x2 = 0.5085	693.82
322.94 K, 7003 kPa, x2 = 0.0218	667.61
322.94 K, 7005 kPa, x2 = 0.5085	696.6
322.94 K, 8006 kPa, x2 = 0.0218	668.67
322.94 K, 8009 kPa, x2 = 0.5085	698.81
322.94 K, 8995 kPa, x2 = 0.0218	669.76
322.94 K, 9010 kPa, x2 = 0.5085	701.04
322.94 K, 10002 kPa, x2 = 0.0218	670.79
322.94 K, 10006 kPa, x2 = 0.5085	703.24
322.94 K, 10997 kPa, x2 = 0.5085	705.29
322.94 K, 11002 kPa, x2 = 0.0218	671.78
322.94 K, 11999 kPa, x2 = 0.0218	672.82
322.94 K, 12001 kPa, x2 = 0.5085	707.34
322.94 K, 12998 kPa, x2 = 0.5085	709.37
322.94 K, 13000 kPa, x2 = 0.0218	673.79
322.94 K, 14001 kPa, x2 = 0.0218	674.79
322.94 K, 14004 kPa, x2 = 0.5085	711.26
322.94 K, 15002 kPa, x2 = 0.0218	675.77
322.94 K, 15009 kPa, x2 = 0.5085	713.17
322.94 K, 15998 kPa, x2 = 0.0218	676.69
322.94 K, 16004 kPa, x2 = 0.5085	715.02
322.94 K, 17002 kPa, x2 = 0.0218	677.65
322.94 K, 17009 kPa, x2 = 0.5085	716.84
322.94 K, 18003 kPa, x2 = 0.0218	678.53
322.94 K, 18003 kPa, x2 = 0.5085	718.61
322.94 K, 18995 kPa, x2 = 0.0218	679.45
322.94 K, 19009 kPa, x2 = 0.5085	720.34
322.94 K, 20004 kPa, x2 = 0.5085	722.03
322.94 K, 20009 kPa, x2 = 0.0218	680.41
322.94 K, 20999 kPa, x2 = 0.0218	681.28
322.94 K, 21007 kPa, x2 = 0.5085	723.66
322.94 K, 21995 kPa, x2 = 0.5085	725.31
322.94 K, 22005 kPa, x2 = 0.0218	682.14
322.94 K, 23002 kPa, x2 = 0.5085	726.96
322.94 K, 23011 kPa, x2 = 0.0218	683.03
322.94 K, 24002 kPa, x2 = 0.5085	728.57
322.94 K, 24009 kPa, x2 = 0.0218	683.94
322.94 K, 24961 kPa, x2 = 0.0218	684.87
322.94 K, 25011 kPa, x2 = 0.5085	730.19
322.96 K, 12028 kPa, x2 = 0.9496	666.43
322.96 K, 13010 kPa, x2 = 0.9496	691.64
322.96 K, 13994 kPa, x2 = 0.9496	711.79
322.96 K, 14997 kPa, x2 = 0.9496	728.42
322.96 K, 16006 kPa, x2 = 0.9496	742.98
322.96 K, 17008 kPa, x2 = 0.9496	755.69
322.96 K, 17999 kPa, x2 = 0.9496	766.84
322.96 K, 19001 kPa, x2 = 0.9496	777.08
322.96 K, 20001 kPa, x2 = 0.9496	786.26
322.96 K, 20994 kPa, x2 = 0.9496	794.84
322.96 K, 21997 kPa, x2 = 0.9496	802.85
322.96 K, 23019 kPa, x2 = 0.9496	810.46
322.96 K, 23997 kPa, x2 = 0.9496	817.33
322.96 K, 24395 kPa, x2 = 0.9496	820.02
332.7 K, 12055 kPa, x2 = 0.9496	554.72
332.7 K, 13001 kPa, x2 = 0.9496	599.39
332.7 K, 14003 kPa, x2 = 0.9496	633.33
332.7 K, 14995 kPa, x2 = 0.9496	659.11
332.7 K, 16003 kPa, x2 = 0.9496	680.52
